Experimental data reported in the supplement of paper PMC10307832.

Tests used:
Assay in all cases: relative viability (nuclei count vs DMSO), 5 days (fraction); higher = more cells survive
IDH-C35 + Olaparib = compound: Cc1ccccc1C(C(=O)NC1CCCCC1)N(C(=O)Cn1ccnc1C)c1cccc(F)c1 [IDH-C35] + O=C(c1cc(Cc2n[nH]c(=O)c3ccccc23)ccc1F)N1CCN(C(=O)C2CC2)CC1 [Olaparib] (partner 8 µM)
Outline: (§1)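 Relative viability equals treated-well nuclei counts divided by vehicle-well nuclei counts. Counts came from 4× images of lung cancer cell lines grown in 1536-well plates for 5 days after pin-tool dosing on the day after seeding. Dosing used one drug alone or a fixed anchor-drug dose plus five library-drug doses (not always all listed) in √10 steps, and values are medians of duplicate plates.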

[1] = compound: CC1=C(C(=NN1)C)CC2=C(C3=C(S2)N(C(=O)N(C3=O)C)CC(C)C)C(=O)N4C[C@@H](CO4)O + C[C@]1(O)C[C@@H](c2nc(-c3ccc4ccc(-c5ccccc5)nc4c3)c3c(N)nccn32)C1 [Linsitinib] (partner 1 µM)
Outline: as §1

IDH-C35 + Crizotinib = compound: Cc1ccccc1C(C(=O)NC1CCCCC1)N(C(=O)Cn1ccnc1C)c1cccc(F)c1 [IDH-C35] + C[C@@H](Oc1cc(-c2cnn(C3CCNCC3)c2)cnc1N)c1c(Cl)ccc(F)c1Cl [Crizotinib] (partner 1 µM)
Outline: as §1

IDH-C35 + Pemetrexed = compound: Cc1ccccc1C(C(=O)NC1CCCCC1)N(C(=O)Cn1ccnc1C)c1cccc(F)c1 [IDH-C35] + Nc1nc2[nH]cc(CCc3ccc(C(=O)N[C@@H](CCC(=O)O)C(=O)O)cc3)c2c(=O)[nH]1 [Pemetrexed] (partner 0.2 µM)
Outline: as §1

Row | Cell Line | relative viability (IDH-C35 + Olaparib; first compound 0.08 µM) | relative viability (IDH-C35 + Olaparib; first compound 0.253 µM) | relative viability (IDH-C35 + Olaparib; first compound 0.8 µM) | relative viability (IDH-C35 + Olaparib; first compound 2.53 µM) | relative viability (IDH-C35 + Olaparib; first compound 8 µM) | relative viability ([1]; first compound 0.0025 µM) | relative viability ([1]; first compound 0.007906 µM) | relative viability ([1]; first compound 0.025 µM) | relative viability ([1]; first compound 0.07906 µM) | relative viability ([1]; first compound 0.25 µM) | relative viability (IDH-C35 + Crizotinib; first compound 0.08 µM) | relative viability (IDH-C35 + Crizotinib; first compound 0.253 µM) | relative viability (IDH-C35 + Crizotinib; first compound 0.8 µM) | relative viability (IDH-C35 + Crizotinib; first compound 2.53 µM) | relative viability (IDH-C35 + Crizotinib; first compound 8 µM) | relative viability (IDH-C35 + Pemetrexed; first compound 0.08 µM) | relative viability (IDH-C35 + Pemetrexed; first compound 0.253 µM) | relative viability (IDH-C35 + Pemetrexed; first compound 0.8 µM) | relative viability (IDH-C35 + Pemetrexed; first compound 2.53 µM) | relative viability (IDH-C35 + Pemetrexed; first compound 8 µM)
1 | EBC-1 | 0.702 | 0.689 | 0.724 | 0.778 | 0.703 | 0.989 | 0.847 | 0.805 | 1.05 | 1.08 | 0.181 | 0.187 | 0.168 | 0.194 | 0.161 |  |  |  |  | 
2 | SW 1573 | 0.5 | 0.54 | 0.496 | 0.433 | 0.467 | 0.869 | 0.905 | 0.869 | 0.804 | 0.782 | 0.759 | 0.889 | 0.798 | 1.01 | 0.713 | 0.692 | 0.889 | 0.879 | 0.789 | 0.763
3 | A-427 | 0.698 | 0.637 | 0.732 | 0.742 | 0.77 | 1.09 | 1.22 | 1.08 | 1.08 | 1.14 | 0.907 | 0.983 | 0.849 | 0.891 | 0.791 | 0.952 | 0.981 | 0.899 | 1.02 | 1.04
4 | NCI-H2347 | 0.577 | 0.628 | 0.609 | 0.522 | 0.554 | 0.992 | 0.944 | 0.956 | 0.894 | 1.03 | 0.71 | 0.695 | 0.713 | 0.762 | 0.619 | 0.424 | 0.418 | 0.452 | 0.417 | 0.43
5 | NCI-H1355 | 0.71 | 0.755 | 0.749 | 0.741 | 0.73 | 0.889 | 0.927 | 0.867 | 0.791 | 0.785 | 1.08 | 1.03 | 1.03 | 1.01 | 1.07 | 1.11 | 1.02 | 0.987 | 1 | 1
6 | NCI-H358 | 0.57 | 0.491 | 0.549 | 0.575 | 0.554 | 0.707 | 0.794 | 0.801 | 0.892 | 0.998 | 0.67 | 0.516 | 0.559 | 0.505 | 0.589 | 0.168 | 0.179 | 0.175 | 0.184 | 0.172
7 | PC-3 [JPC-3] | 1.15 | 1.11 | 1.2 | 1.07 | 1.06 | 0.966 | 0.945 | 0.974 | 0.958 | 1.01 | 1.01 | 0.919 | 0.929 | 1.03 | 0.965 | 1.05 | 1.06 | 1.17 | 1.29 | 1.21
8 | NCI-H2228 | 0.601 | 0.781 | 0.61 | 0.71 | 0.516 | 0.912 | 1.07 | 0.672 | 0.764 | 0.674 | 0.418 | 0.457 | 0.51 | 0.496 | 0.506 | 0.307 | 0.336 | 0.332 | 0.328 | 0.3
